We go through twelve compounds from PMC7134601 (Febs Letters, 2004).

Each structure is given as a SMILES string. “Also recorded” adds a separate entry of the source.

One series has as its target SARS‐CoV 3CL protease (Severe acute respiratory syndrome coronavirus, UniProt P0C6X7). The series is described as follows: biochemical. The format is biochemical.
For series [1], the system named is SARS‐CoV. It is filed as cell-based.
The subject of series [2] is SARS‐CoV. The format is cell-based. This is another data set of the same source.

Regarding `[Co+2]` [Co^2+], the “inhibition of 3CL protease activity” value against SARS‐CoV 3CL protease is given as “did not inhibit”.

Regarding `[Zn+2]` [Zn^2+], at SARS‐CoV 3CL protease, the Ki is 1100 ± 400 nM, the “fold larger K i versus 1‐hydroxypyridine‐2‐thione zinc” value turned out to be 6 fold, the “inhibition of 3CL protease activity” value is listed as “effective” and the “inhibition pattern with respect to the substrate” value (“inhibition pattern” below) is listed as “non‐competitively; also recorded: non‐competitive”.

As to `CC(=O)[O][Hg][c]1ccccc1` [Phenylmercuric acetate], the “effect on detection of the viral spike protein” value in the series on SARS‐CoV [1] is “suppressed detection of the viral spike protein”. In addition, on SARS‐CoV 3CL protease, affinity was put at a Ki of 700 ± 300 nM and the “inhibition pattern” value is “competitive”.

`Oc1c(Cl)cc(Cl)c(Cl)c1Cc1c(O)c(Cl)cc(Cl)c1Cl` [Hexachlorophene]: on SARS‐CoV 3CL protease, the inhibitory constant (Ki) is 13700 ± 400 nM and the “inhibition pattern” value is recorded as “competitive”. Also, the cytotoxicity result in the series on Vero E6 cells is reported as “No cytotoxicity”. Further, the cells still alive entry in the series with Vero E6 cells (African green monkey) was “approximately 50%”. In addition, the “inhibition of cytopathic effect” value in the series with SARS‐CoV [2] is “strong inhibition”.

For the compound `[O-]n1ccccc1=S.[O-]n1ccccc1=S.[Zn+2]` [1‐Hydroxypyridine‐2‐thione zinc], at SARS‐CoV 3CL protease, the “inhibition pattern” value is “competitive”.

Consider `[Ni+2]` [Ni^2+], for which the “inhibition of 3CL protease activity” value against SARS‐CoV 3CL protease is recorded as “did not inhibit”.

Take `[Hg+2]` [Hg^2+]: the “inhibition of 3CL protease activity” value at SARS‐CoV 3CL protease is “effective”.

For the compound `[Mg+2]` [Mg^2+], on SARS‐CoV 3CL protease, the “inhibition of 3CL protease activity” value was “did not inhibit”.

For the compound `C[CH2][Hg][S]c1ccccc1C(=O)[O-].[Na+]` [Thimerosal], the “decrease of the detectable quantity of the spike protein” value in the series with SARS‐CoV [1] was “over 90%”. On SARS‐CoV 3CL protease, affinity was put at a Ki of 2400 ± 200 nM and the “inhibition pattern” value is “competitive”.

Take `O=C(Nc1ccc([N+](=O)[O-])cc1Cl)c1cc(Cl)ccc1O` [niclosamide, Niclosamide]: the “inhibition of 3CL protease activity” value against SARS‐CoV 3CL protease was “not indicative of any inhibitory effect”.

`[Cu+2]` [Cu^2+]: on SARS‐CoV 3CL protease, the affinity, expressed as Ki, was 4900 ± 1300 nM and the “inhibition of 3CL protease activity” value is recorded as “effective”.

`[Mn+2]` [Mn^2+]: the “inhibition of 3CL protease activity” value on SARS‐CoV 3CL protease is reported as “did not inhibit”.
